Patent US8455497B2, “Inhibitors of aspartyl protease” (Vertex Pharmaceuticals Incorporated, priority 1999, dated 2013)
Like-named read-outs stand apart in the source and are kept apart here.

Tested on: HIV-1 (strain IIIB)
Test: Antiviral activity assay in MT4 cells (propidium iodide based)
Type: cell-based
Conditions: wild type HIV-1 virus, MT4 cells, read-out: Wildtype virus - IC50
Protocol: Antiviral Activity Assay in MT4 Cells
Aliquots of the test compounds were serially diluted in medium (RPMI 1640, 10% fetal calf serum (FCS), and gentamycin) in 96-well plates (Costar 3598) using a Cetus Pro/Pette. Exponentially growing MT4 cells were harvested and centrifuged at 1000 rpm for 10 min in a Jouan centrifuge (model CR 4 12). Cell pellets were resuspended in fresh medium (RPMI 1640, 20% FCS, 20% IL-2, and gentamycin) to a density of 5×10^5 cells/ml. Cell aliquots were infected by the addition of HIV-1 (strain IIIB) diluted to give a viral multiplicity of infection of 100×TCID50. A similar cell aliquot was diluted with medium to provide a mock-infected control. Cell infection was allowed to proceed for 1 hr at 37° in a tissue culture incubator with humidified 5% CO2 atmosphere. After the 1 hr incubation the virus/cell suspensions were diluted 6-fold with fresh medium, and 125 μl of the cell suspension was added to each well of the plate containing pre-diluted compound. Plates were then placed in a tissue culture incubator with humidified 5% CO2 for 5 days. At the end of the incubation period, 27 μl of 5% Nonidet-40 was added to each well of the incubation plate. After thorough mixing with a Costar multitip pipetter, 60 μl of the mixture was transferred to filter-bottomed 96-well plates. The plates were analyzed in an automated assay instrument (Screen Machine, Idexx Laboratories). The assay makes use of a propidium iodide dye to estimate the DNA content of each well.
The anti-viral potency in MT-4 cells of the compounds set forth in Tables 1 and 2 was determined using the above technique.

[1] = Human immunodeficiency virus 1, IIIB

Compound: CC(C)CN(C[C@@H](O)[C@H](Cc1ccc(OCc2ccsc2)cc1)NC(=O)O[C@H]1CO[C@H]2OCC[C@H]21)S(=O)(=O)c1ccc2c(c1)OCO2 [Compound 207]
- IC50: 0.001 to 0.01 µM

Compound: CC(C)CN(C[C@@H](O)[C@H](Cc1ccc(OCCc2ccsc2)cc1)NC(=O)O[C@H]1CO[C@H]2OCC[C@H]21)S(=O)(=O)c1ccc2c(c1)OCO2 [Compound 208]
- IC50: 0.01 to 0.1 µM

Compound: CC(C)CN(C[C@@H](O)[C@H](Cc1ccc(OCCc2cccs2)cc1)NC(=O)O[C@H]1CO[C@H]2OCC[C@H]21)S(=O)(=O)c1ccc2c(c1)OCO2 [Compound 209]
- IC50: 0.001 to 0.01 µM

Compound: CC(C)CN(C[C@@H](O)[C@H](Cc1ccc(OCCc2ccncc2)cc1)NC(=O)O[C@H]1CO[C@H]2OCC[C@H]21)S(=O)(=O)c1ccc2c(c1)OCO2 [Compound 211]
- IC50: 0.001 to 0.01 µM

Compound: Cc1ncsc1CCOc1ccc(C[C@H](NC(=O)O[C@H]2CO[C@H]3OCC[C@H]32)[C@H](O)CN(CC(C)C)S(=O)(=O)c2ccc3c(c2)OCO3)cc1 [Compound 213]
- IC50: 0.001 to 0.01 µM

Compound: CC(C)CN(C[C@@H](O)[C@H](Cc1ccc(OCCCc2cccnc2)cc1)NC(=O)O[C@H]1CO[C@H]2OCC[C@H]21)S(=O)(=O)c1ccc2c(c1)OCO2 [Compound 214]
- IC50: 0.001 to 0.01 µM

Compound: CC(C)CN(C[C@@H](O)[C@H](Cc1ccc(OCCc2ccc(C#N)cc2)cc1)NC(=O)O[C@H]1CO[C@H]2OCC[C@H]21)S(=O)(=O)c1ccc2c(c1)OCO2 [Compound 215]
- IC50: 0.001 to 0.01 µM

Compound: CC(C)CN(C[C@@H](O)[C@H](Cc1ccc(OCCCC(F)(F)F)cc1)NC(=O)O[C@H]1CO[C@H]2OCC[C@H]21)S(=O)(=O)c1ccc2c(c1)OCO2 [Compound 216]
- IC50: 0.001 to 0.01 µM

Compound: CC(C)CN(C[C@@H](O)[C@H](Cc1ccc(OCCC(F)(F)F)cc1)NC(=O)O[C@H]1CO[C@H]2OCC[C@H]21)S(=O)(=O)c1ccc2c(c1)OCO2 [Compound 217]
- IC50: 0.001 to 0.01 µM

Compound: CC(C)CN(C[C@@H](O)[C@H](Cc1ccc(OCCCCN)cc1)NC(=O)O[C@H]1CO[C@H]2OCC[C@H]21)S(=O)(=O)c1ccc2c(c1)OCO2 [Compound 224, (3R,3aS,6aR)-hexahydrofuro[2,3-b]furan-3-yl (1S,2R)-1-[4-(4-aminobutoxy)benzyl]-3-[(1,3-benzodioxol-5-ylsulfonyl) (isobutyl)amino]-2-hydroxypropylcarbamate]
- IC50 [1]: 0.01 to 0.1 µM

Compound: CC(C)CC(=O)NCCCOc1ccc(C[C@H](NC(=O)O[C@H]2CO[C@H]3OCC[C@H]32)[C@H](O)CN(CC(C)C)S(=O)(=O)c2ccc3c(c2)OCO3)cc1 [Compound 231]
- IC50: 0.001 to 0.01 µM

Compound: CC(C)CN(C[C@@H](O)[C@H](Cc1ccc(OCCCNC(=O)C(C)(C)C)cc1)NC(=O)O[C@H]1CO[C@H]2OCC[C@H]21)S(=O)(=O)c1ccc2c(c1)OCO2 [Compound 232]
- IC50: 0.001 to 0.01 µM

Compound: CC(C)CN(C[C@@H](O)[C@H](Cc1ccc(OCCNC(=O)c2ccco2)cc1)NC(=O)O[C@H]1CO[C@H]2OCC[C@H]21)S(=O)(=O)c1ccc2c(c1)OCO2 [Compound 234]
- IC50: 0.001 to 0.01 µM

Compound: CCOC(=O)NCCOc1ccc(C[C@H](NC(=O)O[C@H]2CO[C@H]3OCC[C@H]32)[C@H](O)CN(CC(C)C)S(=O)(=O)c2ccc3c(c2)OCO3)cc1 [Compound 245]
- IC50: 0.001 to 0.01 µM

Compound: CCOC(=O)NCCCOc1ccc(C[C@H](NC(=O)O[C@H]2CO[C@H]3OCC[C@H]32)[C@H](O)CN(CC(C)C)S(=O)(=O)c2ccc3c(c2)OCO3)cc1 [Compound 246]
- IC50: 0.001 to 0.01 µM

Compound: CCOC(=O)NCCCCOc1ccc(C[C@H](NC(=O)O[C@H]2CO[C@H]3OCC[C@H]32)[C@H](O)CN(CC(C)C)S(=O)(=O)c2ccc3c(c2)OCO3)cc1 [Compound 247]
- IC50: 0.001 to 0.01 µM

Compound: CC(C)CN(C[C@@H](O)[C@H](Cc1ccc(OCCNC(=O)OC(C)C)cc1)NC(=O)O[C@H]1CO[C@H]2OCC[C@H]21)S(=O)(=O)c1ccc2c(c1)OCO2 [Compound 248]
- IC50: 0.001 to 0.01 µM

Compound: CC(C)CN(C[C@@H](O)[C@H](Cc1ccc(OCCCNC(=O)OC(C)C)cc1)NC(=O)O[C@H]1CO[C@H]2OCC[C@H]21)S(=O)(=O)c1ccc2c(c1)OCO2 [Compound 249]
- IC50: 0.001 to 0.01 µM

Compound: CC(C)CN(C[C@@H](O)[C@H](Cc1ccc(OCCCCNC(=O)OC(C)C)cc1)NC(=O)O[C@H]1CO[C@H]2OCC[C@H]21)S(=O)(=O)c1ccc2c(c1)OCO2 [Compound 250]
- IC50: 0.001 to 0.01 µM

Compound: CC(C)CN(C[C@@H](O)[C@H](Cc1ccc(OCCCCNS(C)(=O)=O)cc1)NC(=O)O[C@H]1CO[C@H]2OCC[C@H]21)S(=O)(=O)c1ccc2c(c1)OCO2 [Compound 252]
- IC50: 0.001 to 0.01 µM

Compound: CC(C)CN(C[C@@H](O)[C@H](Cc1ccc(OCCCNC(=O)N(C)C)cc1)NC(=O)O[C@H]1CO[C@H]2OCC[C@H]21)S(=O)(=O)c1ccc2c(c1)OCO2 [Compound 254]
- IC50: 0.001 to 0.01 µM

Compound: CC(C)CN(C[C@@H](O)[C@H](Cc1ccc(OCCCC(N)=O)cc1)NC(=O)O[C@H]1CO[C@H]2OCC[C@H]21)S(=O)(=O)c1ccc2c(c1)OCO2 [Compound 285, (3R,3aS,6aR)-hexahydrofuro[2,3-b]furan-3-yl (1S,2R)-1-[4-(4-amino-4-oxobutoxy)benzyl]-3-[(1,3-benzodioxol-5-ylsulfonyl)(isobutyl)amino]-2-hydroxypropylcarbamate]
- IC50 [1]: 0.01 to 0.1 µM

Compound: CC(C)(CCCC#N)CN(C[C@@H](O)[C@H](Cc1ccc(OCc2ccccc2)cc1)NC(=O)OC1COCOC1)S(=O)(=O)c1ccc2c(c1)OCO2 [Compound 306, 1,3-Dioxan-5-yl (1S,2R)-3-[(1,3-benzodioxol-5-ylsulfonyl)(5-cyano-2,2-dimethylpentyl)amino]-1-[4 (benzyloxy)benzyl]-2-hydroxypropylcarbamate]
- IC50 [1]: 0.01 to 0.1 µM

Compound: CC(C)(CCCC#N)CN(C[C@@H](O)[C@H](Cc1ccc(OCc2ccccc2)cc1)NC(=O)O[C@H]1CCOC1)S(=O)(=O)c1ccc2c(c1)OCO2 [Compound 307, (3S)-Tetrahydro-3-furanyl (1S,2R)-3-[(1,3-benzodioxol-5-ylsulfonyl)(5-cyano-2,2-dimethylpentyl)amino]-1-[4-(benzyloxy)benzyl]-2-hydroxypropylcarbamate]
- IC50 [1]: 0.01 to 0.1 µM

Compound: Cc1cccc(C)c1OCC(=O)N[C@@H](Cc1ccc(OCc2ccccc2)cc1)[C@H](O)CN(CC(C)C)S(=O)(=O)c1ccc2c(c1)OCO2 [Compound 325, N-{(1S,2R)-3-[(1,3-Benzodioxol-5-ylsulfonyl)(isobutyl)amino]-1-[4-(benzyloxy)benzyl]-2-hydroxypropyl}-2-(2,6-dimethylphenoxy)acetamide]
- IC50 [1]: 0.01 to 0.1 µM

Compound: CCOC(CCOC(=O)N[C@@H](Cc1ccc(OCc2ccccc2)cc1)[C@H](O)CN(CC(C)C)S(=O)(=O)c1ccc2c(c1)OCO2)OCC [Compound 328, 3,3-Diethoxypropyl (1S,2R)-3-[(1,3-benzodioxol-5-ylsulfonyl)(isobutyl)amino]-1-[4-(benzyloxy)benzyl]-2-hydroxypropylcarbamate]
- IC50 [1]: 0.01 to 0.1 µM

Compound: CCC(CC)ON(C[C@@H](O)[C@H](Cc1ccc(OCc2ccccc2)cc1)NC(=O)OC1COCOC1)S(=O)(=O)c1ccc2c(c1)OCO2 [Compound 330, 1,3-Dioxan-5-yl (1S,2R)-3-[(1,3-benzodioxol-5-ylsulfonyl) (1-ethylpropoxy)amino]-1-[4-(benzyloxy)benzyl]-2-hydroxypropylcarbamate]
- IC50 [1]: 0.01 to 0.1 µM

Compound: CC(C)CN(C[C@@H](O)[C@H](Cc1ccc(OCCCC(=O)O)cc1)NC(=O)O[C@H]1CO[C@H]2OCC[C@H]21)S(=O)(=O)c1ccc2c(c1)OCO2 [Compound 339, 4-(4-{(2S,3R)-2-({[(3R,3aS,6aR)-hexahydrofuro[2,3-b]furan-3-yloxy]carbonyl}amino)-4-[(1,3-benzodioxol-5-ylsulfonyl)(isobutyl)amino]-3-hydroxybutyl}phenoxy) butanoic acid]
- IC50 [1]: 0.01 to 0.1 µM

Compound: CC(C)CN(C[C@@H](O)[C@H](Cc1ccc(OCc2ccccc2)cc1)NC(=O)O[C@H]1CO[C@H]2OCC[C@H]21)S(=O)(=O)c1ccc2c(c1)OC(F)(F)O2 [Compound 340, (3R,3aS,6aR)-hexahydrofuro[2,3-b]furan-3-yl (1S,2R)-1-[4-(benzyloxy)benzyl]-3-[[(2,2-difluoro-1,3-benzodioxol-5-yl)sulfonyl](isobutyl)amino]-2-hydroxypropylcarbamate]
- IC50 [1]: 0.01 to 0.1 µM

Compound: Cc1cc(S(=O)(=O)N(CC(C)C)C[C@@H](O)[C@H](Cc2ccc(OCc3cccc(C#N)c3)cc2)NC(=O)O[C@H]2CO[C@H]3OCC[C@H]32)ccc1O [Compound 346]
- IC50 [1]: 0.01 to 0.1 µM

Compound: Cc1cccc(C)c1OCC(=O)N[C@@H](Cc1ccc(OS(=O)(=O)c2ccc3c(c2)OCO3)cc1)[C@H](O)CN(CC(C)C)S(=O)(=O)c1ccc2c(c1)OCO2 [Compound 350, 4-((2S,3R)-4-[(1,3-benzodioxol-5-ylsulfonyl)(isobutyl)amino]-2-{[(2,6-dimethylphenoxy)acetyl]amino}-3-hydroxybutyl)phenyl 1,3-benzodioxole-5-sulfonate]
- IC50 [1]: 0.01 to 0.1 µM

Compound: CC(C)CN(C[C@@H](O)[C@H](Cc1ccc(OCCN)cc1)NC(=O)O[C@H]1CO[C@H]2OCC[C@H]21)S(=O)(=O)c1ccc2c(c1)OCO2 [Compound 354, (3R,3aS,6aR)hexahydrofuro[2,3-b]furan-3-yl (1S,2R)-3-[(1,3-benzodioxol-5-ylsulfonyl)(isobutyl)amino]-2-hydroxy-1-[4-(2-aminoethoxy)benzyl]propylcarbamate]
- IC50 [1]: 0.01 to 0.1 µM
